Test results published in ChEMBL document CHEMBL1143607, “Pyridinium-1-yl bisphosphonates are potent inhibitors of farnesyl diphosphate synthase and bone resorption” (J Med Chem, 2005).

How the values were obtained:
Dictyostelium discoideum = test: Inhibitory concentration against Dictyostelium discoideum cell growth; assay type: functional, organism-based, Fungi
[1] = Effective concentration against human Gamma delta T cells; assay type: functional, cell-based; conditions: t-cell
Mus musculus = species on record: Mus musculus; test: In vitro inhibitory concentration against bone resorption in 17 day old fetal mouse metatarsals; assay type: functional

Structure (SMILES) | IC50 (Dictyostelium discoideum) | EC50 [1] | IC50 (Mus musculus)
O=P([O-])(O)C(O)(C[n+]1cccc(Cc2ccccc2)c1)P(=O)(O)O (stereo unspecified) | 11 µM | 91 µM | 
CCCCc1ccc[n+](CC(O)(P(=O)([O-])O)P(=O)(O)O)c1 (stereo unspecified) | 2.9 µM | 4.3 µM | 
O=P([O-])(O)C(O)(C[n+]1ccc2ccccc2c1)P(=O)(O)O (stereo unspecified) | 20 µM | 30 µM | 
O=P([O-])(O)C(O)(C[n+]1ccc(Cc2ccccc2)cc1)P(=O)(O)O (stereo unspecified) | 12 µM | 150 µM | 
NCCCC(O)(P(=O)(O)O)P(=O)(O)O [ALENDRONIC ACID] |  | 32 µM | 0.29 µM
COc1ccc[n+](CC(O)(P(=O)([O-])O)P(=O)(O)O)c1 (stereo unspecified) | 6 µM | 9.3 µM | 0.37 µM
O=P([O-])(O)C(O)(C[n+]1ccccc1)P(=O)(O)O (stereo unspecified) | 2.1 µM | 4.8 µM | 0.67 µM
Cc1ccc[n+](CC(O)(P(=O)([O-])O)P(=O)(O)O)c1 (stereo unspecified) | 1.5 µM | 4.5 µM | 0.22 µM
NCCC(O)(P(=O)(O)O)P(=O)(O)O [PAMIDRONIC ACID] |  | 43 µM | 1.6 µM
O=P(O)(O)C(O)(Cn1ccnc1)P(=O)(O)O [ZOLEDRONIC ACID] | 2.9 µM | 5.4 µM | 0.034 µM
O=P([O-])(O)C(O)(C[n+]1cccc(-c2ccccc2)c1)P(=O)(O)O (stereo unspecified) | 3.8 µM | 4.1 µM | 0.41 µM
Cc1cccc(Cc2ccc[n+](CC(O)(P(=O)([O-])O)P(=O)(O)O)c2)c1 (stereo unspecified) | 9.2 µM | 44 µM | 
O=P([O-])(O)C(O)(C[n+]1cccc2cc(Cl)ccc21)P(=O)(O)O (stereo unspecified) | 72 µM | 56 µM | 
O=P([O-])(O)C(O)(C[n+]1cccc(F)c1)P(=O)(O)O (stereo unspecified) | 4.6 µM | 2.7 µM | 0.075 µM
O=P(O)(O)C(O)(Cc1cccnc1)P(=O)(O)O [RISEDRONIC ACID] |  | 5 µM | 0.3 µM
CCc1ccc[n+](CC(O)(P(=O)([O-])O)P(=O)(O)O)c1 (stereo unspecified) | 5.6 µM | 4.4 µM | 
Nc1c[n+](CC(P(=O)([O-])O)P(=O)(O)O)ccn1 (stereo unspecified) |  |  | 0.22 µM
O=P([O-])(O)C(O)(C[n+]1cccc(-c2ccc(O)cc2)c1)P(=O)(O)O (stereo unspecified) | 2.9 µM | 2.5 µM | 
